Tests used:
TCRα deficient mice = test: Adoptive transfer of peptide-primed, AQP4 201-220-cultured Th17 cells into TCRα deficient mice; assay type: in vivo, mouse; details: for clinical CNS autoimmune disease after transfer of primed Th17 cells: donor AQP4-deficient mice primed with the peptide, cells cultured with AQP4 201-220, 2×10^7 T cells into TCRα deficient mice; for meningeal and parenchymal infiltrates vs OVA primed T cells: recipients of primed donor T cells, histological analysis
Description: FIGS. 9A-9C. T cells reactive to AQP5, an autoantigen in Sjögren's syndrome also recognize AQP4, the autoantigen in NMO, and can cause CNS autoimmune disease. (FIG. 9A) AQP4-deficient mice were immunized with AQP4 p201-220, AQP5 p174-190 or OVA 323-339. 10-12 days later lymphocytes from draining lymph nodes are removed and cultured with AQP4 201-220 under Th17 polarizing conditions for 72 hours. 2×10^7 T cells were transferred into TCRα deficient mice, followed by 200 ng Pertussis toxin at days 0 and 2. […] Statistics performed using ANOVA with Tukey's test for multiple comparisons. ****P<0.0001.
CNS autoimmune disease induction and analysis. For adoptive induction of CNS disease with primary lymphocytes, mice were immunized s.c. with 100 μg AQP4 or MOG peptides in CFA containing 400 μg M. tuberculosis H37Ra (Difco Laboratories). After 10-12 days, lymph node cells were cultured with 15 μg/ml antigen for 3 days with 20 ng/ml IL-23 and 10 ng/ml IL-6, under Th17 polarizing conditions. 2×10^7 cells were injected i.v. into naïve recipients, which then received 200 ng B. pertussis toxin (Ptx) (List Biological) i.p. on days 0 and 2. Clinical scores: 0=no disease, 1=tail tone loss, 2=impaired righting, 3=severe paraparesis or paraplegia, 4=quadraparesis, and 5=moribund or death.
Histopathology. Brain, spinal cord, optic nerve, kidney and muscle tissue samples were fixed in 10% neutral-buffered formalin, paraffin-embedded, sectioned and stained with H&E. Meningeal and parenchymal inflammatory lesions and areas of demyelination were assessed in a blinded manner as described (39).

[1] = tested on: draining lymph node cells; test: T cell cross-reactivity between AQP4 and AQP5, ^3H-thymidine proliferation; assay type: cell-based, mouse; details: AQP4-deficient mice immunized with 100 μg AQP5 p174-190; cells cultured with AQP4 201-220, then restimulated
Description: FIG. 8. T cells cross-react with AQP4 and AQP5. AQP4-deficient mice were immunized with 100 μg of AQP5 p174-190. Draining lymph node cells were cultured with AQP4 201-220, then restimulated with the different antigens. Proliferation was measured by ^3H-thymidine incorporation of the stimulation to antigen divided by the background stimulation (mean±SEM).
(§1) Proliferation assays. Mice were immunized subcutaneously (s.c.) with 100 μg of AQP4, MOG or IRBP peptide in CFA containing 400 μg M. tuberculosis H37Ra (Difco Laboratories). Lymph nodes were harvested on day 10-12 and cultured at 2×10^5/well with various concentrations of peptide in triplicate wells for 72 hours. […] of ^3H-thymidine was added 18 hours prior to cell harvest, and data are presented as counts per minute (CPM). Stimulation Index (SI) was calculated by dividing CPM in wells with Ag by CPM in wells with no antigen controls of each assay test group.

[2] = target: T1, MHC class II I-A^b molecules (Mus musculus, UniProt P14434+P14483); test: I-A^b affinity assay (competitive binding against a radiolabeled high-affinity peptide); details: purified I-A^b; unlabeled peptide vs radiolabeled high-affinity competitor peptide
T1 construct: made in house
T1 sequence (P14434 24-256): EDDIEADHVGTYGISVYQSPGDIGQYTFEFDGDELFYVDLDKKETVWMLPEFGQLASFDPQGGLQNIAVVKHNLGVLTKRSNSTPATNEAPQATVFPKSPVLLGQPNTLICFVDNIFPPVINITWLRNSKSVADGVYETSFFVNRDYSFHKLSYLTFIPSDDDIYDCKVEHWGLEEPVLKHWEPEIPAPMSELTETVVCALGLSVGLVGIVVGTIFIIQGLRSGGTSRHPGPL
T1 sequence (P14483 28-265): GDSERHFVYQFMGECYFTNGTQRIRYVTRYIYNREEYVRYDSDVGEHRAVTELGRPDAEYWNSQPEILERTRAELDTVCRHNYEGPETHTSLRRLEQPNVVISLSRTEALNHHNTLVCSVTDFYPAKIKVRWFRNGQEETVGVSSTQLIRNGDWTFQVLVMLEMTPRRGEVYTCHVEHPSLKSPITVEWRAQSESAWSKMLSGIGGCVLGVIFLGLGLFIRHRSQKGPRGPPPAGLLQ
Description: (§2) FIGS. 2A-2F. Pathogenic AQP4 determinants bind I-A^b with high affinity and elicit proliferation of AQP4: I-A^b-specific TCR-bearing T cells in AQP4-deficient mice. (FIG. 2A) WT or AQP4^−/− mice were immunized s.c. with peptides indicated. Peptide-specific proliferation of draining lymph node cells was measured by 3H-thymidine incorporation (mean±SEM, representative of five experiments). (FIG. 2B) Lymph node cells from AQP4 immunized WT or AQP4^−/− mice were cultured for 3 days with cognate antigen under Th17 polarizing conditions. AQP4 p133-149- and p202-218-specific Th17 cells from AQP4/donors induce paralysis in WT recipient mice. (FIG. 2C) IEDB, an in silico method for predicting determinants within proteins that bind MHC alleles, was used to identify AQP4 amino acid sequences anticipated to bind I-A^b for recognition by AQP4-specific/I-A^b-restricted CD4^+ T cells. 1/IC50 is plotted against the first amino acid for each overlapping AQP4 15 mer. Peaks correspond to increased predicted binding affinity. (FIG. 2D) Purified I-A^b molecules were tested biochemically for peptide binding affinity using a competitive binding assay between a radiolabeled high-affinity competitor peptide and unlabeled peptides (22). Lower IC50 values indicate higher binding affinity. Boxed amino acids designate the core binding regions. (FIGS. 2E-2F) Lymph node T cells isolated from WT or AQP4−/− mice immunized with AQP4 p133-149 or p202-218 were stained with I-A^b:p133-149 and […] tetramers, bead-enriched and analyzed by flow cytometry. […] Each data point represents one mouse. ****p<0.0001 (Mann Whitney U test).
Both AQP4 p133-149 and p202-218 are predicted to bind MHC II (I-A^b) with high affinity according to the Immune Epitope Database (IEDB) (FIG. 2C), an in silico method for predicting determinants within proteins that bind allele-specific MHC molecules for presentation to T cells (21). We have now examined AQP4 peptide affinity for I-A^b biochemically. I-A^b molecules that were purified by affinity chromatography were tested in a competitive binding assay between a radiolabeled high-affinity competitor peptide and unlabeled peptides (22). Indeed, peptides containing the two pathogenic AQP4 T cell determinants bound I-A^b with higher affinity than the nonpathogenic AQP4 p24-35 T cell epitope or MOG p35-55 (FIG. 2D).
I-A^b affinity Assay. Purification of MHC class II I-A^b molecules by affinity chromatography, and the performance of assays based on the inhibition of binding of a high affinity radiolabeled peptide to quantitatively measure peptide binding, were performed as described (22). Lower IC50 values indicate higher binding affinity. Excellent binders have affinities less than 100 nM and good binders have affinities less than 1000 nM.

CD4^+ T cells = test: I-A^b:peptide tetramer binding by flow cytometry after peptide immunization; assay type: cell-based, mouse; details: Aire^−/− mice, I-A^b:IRBP p277-289 tetramer
Description: (§3) FIGS. 4A-4B. Negative selection of AQP4 p133-149-reactive T cells is bypassed partially in mice deficient in thymic AQP4 expression. (FIG. 4A) AQP4^−/− WT, Foxn1cre-AQP4^fl/fl, Aire^−/−, or Foxn1cre-Fezf2^fl/fl mice were immunized s.c. with peptides indicated. Peptide-specific proliferation of draining lymph node cells was measured by 3H-thymidine incorporation (mean±SEM, representative of five experiments). Comparisons within the five experiments for p133-149 at […]: WT vs. AQP4^−/− (p=0.008), WT vs. Foxn1cre-AQP4^fl/fl (p=0.008). (FIG. 4B) Ten days after peptide immunization, CD4^+ T cells from draining lymph nodes were analyzed for I-A^b: peptide tetramer binding by flow cytometry. Each data point represents the frequency (mean±SEM) of CD4^+ T cells bound to cognate antigen-tetramer in a single mouse. […] For p133-149: WT vs. Aire^−/− (p=0.9), WT vs. Foxn1cre-Fezf2^fl/fl (p=0.3). For p202-218: WT vs. Foxn1cre-AQP4^fl/fl (p=0.3), WT vs. Aire^−/− (p=0.06).
Flow cytometry. For analysis of tetramer binding, AQP4 p133-149, p202-218, IRBP p277-289 and hCLIP p87-101 IA^b tetramers conjugated to PE or APC were provided by the National Institute of Allergy and Infectious Diseases Tetramer Core Facility at Emory University. Lymphocytes were coincubated with 1 mg/ml tetramer conjugated to PE or APC for 2 hours at room temperature, washed and enriched using anti-PE magnetic microbeads (Miltenyi) over a magnetic column. Binding to hCLIP tetramer was used as a negative control. Dead cells were excluded using Live/Dead fixable Aqua Dead Cell Stain Kit (Invitrogen), lineage negative cells were excluded using antibodies to CD11b (M1/70), B220 (RA3-6B2) and CD8 (53-6.7) and positive cells were selected using antibodies to CD3 (145-2C11) and CD4 (RM4.5). 123count eBeads (Invitrogen) were used with unenriched and enriched samples for quantification of the frequency of tet^+CD4^+ T cells (total number of tet^+CD4+ T cells divided by total CD4^+ T cells per mouse). For figures showing tetramer staining, flow cytometry of the unenriched cells are shown. For analysis of GFP^+ T cells, mice were perfused with PBS, and the CNS was dissected, minced, digested with collagenase and DNase I (Roche), and isolated over a Ficoll gradient as described previously (39). Live CD4^+ cells were analyzed with a viability stain (Near-IR), and antibodies to CD11b, B220, CD8 and CD4. Apoptosis was analyzed separately using the same antibody staining, followed by Annexin V and 7-AAD staining in Annexin V binding buffer (BioLegend) per manufacturer's instructions. Cells were quantified using 123count eBeads.

[3] = tested on: draining lymph node cells; test: Proliferation assay, ^3H-thymidine incorporation after s.c. peptide immunization; assay type: cell-based, mouse
Description: as §2, §3, §1

LVGIYFTGCSMNPARSF [AQP5 p174-190, autoantigen in Sjögren's syndrome]
clinical CNS autoimmune disease after transfer of primed Th17 cells (TCRα deficient mice): cause paralysis | clinical CNS autoimmune disease after transfer of primed Th17 cells (TCRα deficient mice; listed as AQP5 174-190): can induce clinical and histologic CNS autoimmune disease | meningeal and parenchymal infiltrates vs OVA primed T cells (TCRα deficient mice): significantly more meningeal and parenchymal infiltrates | T cell cross-reactivity [1]: T cell cross-reactivity between AQP5 174-190 and AQP4 201-220 | T cell stimulation (proliferation) [1]: stimulatory

AQP4 p201-220: AQP4 T cell epitope (201-220) that causes CNS autoimmunity in mice (HLFAINYTGASMNPARSFGP; UniProt P55088 201-220, looked up, fragment)
peptide binding affinity for I-A^b [2]: exceptionally high affinity | clinical CNS autoimmune disease after transfer of primed Th17 cells (TCRα deficient mice): cause paralysis | meningeal and parenchymal infiltrates vs OVA primed T cells (TCRα deficient mice): significantly more meningeal and parenchymal infiltrates

IRBP p277-289: Aire-dependent T cell determinant of interphotoreceptor retinoid-binding protein (FLTVPVSRSLGPL; UniProt P49194 277-289, looked up, fragment) [reference compound]
expansion of CD4^+ tet^+ T cells (CD4^+ T cells): promoted expansion

AQP4 p24-35: nonpathogenic AQP4 T cell epitope (VAFKGVWTQAFW) [reference compound]
discordance in proliferation between AQP4^−/− and WT mice [3]: not observed
